Measured values as given in US10253355B2, “Instrument and system for rapid microorganism identification and antimicrobial agent susceptibility testing” (Accelerate Diagnostics, Inc., priority 2015, dated 2019).
Like-named read-outs stand apart in the source and are kept apart here.

Legend:
[1] = test system: Pseudomonas aeruginosa ATCC 27853; conditions: cited from earlier work; for Organism QC Range (MIC): AST QC panel (Table 9), CLSI recommended isolate P. aeruginosa ATCC 27853; for Expected (MIC acceptance range): P. aeruginosa ATCC 27853
[2] = test system: Pseudomonas aeruginosa ATCC 27853; assay: AST QC assay on AD-1 instrument, QC isolate P. aeruginosa ATCC 27853; format: cell-based
Source text: (§1) The reportable range for the AST QC assay in some examples are adjusted such that the selected QC isolates have an MIC that is within the reportable range of the QC Assay. These extended ranges are only applied to QC testing and are not applied to AST assessment of patient samples. The process for assigning an MIC value to the QC organisms is the same or similar to that used for patient samples. […] This approach allows testing of, for example, CLSI recommended QC isolates without affecting the algorithms that are optimized around antimicrobial breakpoints. The algorithms used in ID QC or AST QC testing include those described above, for example, when the QC test samples are microbial isolates. For ID QC testing utilizing target microbial nucleic acids coupled to a bead, positive detection is achieved by comparing the cumulative count in the target (e.g., Green fluorescence channel) only against a threshold of objects that have brightness exceeding bead autofluorescence. Negative control detection is achieved by doing the same for eubacteria (e.g., Red fluorescence) channel only. For example, the number of bright red objects should not exceed a threshold in order to pass negative control.
(§2) The results of the identification assay drive antibiotic selection for antimicrobial susceptibility testing. The remaining samples undergo a pre-growth step to normalize growth rates during the approximately 1-hour FISH ID assay. The concentration of organisms in the purified inoculum was determined by repeating the quantitation process with a universal nucleic acid stain as previously described herein. […] Following cell immobilization, antimicrobial solutions in Mueller-Hinton agar were dispensed into the flowcells. Different antimicrobials were tested in separate flowcells, and only a single concentration of each antimicrobial was used. A growth control consisting of Mueller-Hinton agar without any antimicrobial was included for each run. A dark-field microscope and camera produced time-lapse images approximately every 10 minutes of progenitor cells growing into clones of daughter cells in each flowcell. The agar ensured daughter cells were immobilized and remained localized to each growing clone. Resistant clones grew while susceptible clones arrest or lyse over time (FIG. 90).
(§3) Custom image analysis software assigned unique spatial XY coordinates to individual progenitor cells (FIG. 91), allowing each growing clone across a series of time-lapse images to be identified. The intensity of each clone can be used as a metric of clone mass in each image. By measuring over time, this metric was used to generate growth curves for each individual clone (FIG. 92). The pattern of cell responses was used to determine the susceptibility of the overall population. Computer algorithms developed for each organism-antimicrobial combination convert microbial growth response into an MIC value using a mathematical regression model based on the response of isolates with known MICs for a single-concentration of a given antimicrobial. Once obtained, MIC values were interpreted using FDA, CLSI or EUCAST breakpoints along with expert rules to determine the categorical result (susceptible (S), intermediate (I) or resistant (R)). In addition to MICs, this technique was applied to phenotypic resistance mechanism detection.
(§4) In this example, the AST QC consumable insert consisted of 8 wells configured in a “pi” shape, as shown in the dark gray shading in FIG. 109. The AST QC panel was composed of seven CLSI recommended isolates that provide “on-scale” MIC results for all of the antimicrobial agents included in a sample blood culture test. A C. albicans isolate was used for Quality Control assessment of the […] component of the AD-1 Instrument System.
(§5) Table 9 below lists each organism and the corresponding antimicrobial agent that was tested in the AST QC assay. […]

[3] = test system: Enterococcus faecalis ATCC 29212; assay: AST QC assay on AD-1 instrument, QC isolate E. faecalis ATCC 29212; format: cell-based; conditions: unit assumed
Source text: as §1, §2, §3, §4, §5

[4] = test system: Enterococcus faecalis ATCC 29212; conditions: cited from earlier work; for Organism QC Range (MIC): AST QC panel (Table 9), CLSI recommended isolate E. faecalis ATCC 29212; for Expected (MIC acceptance range): E. faecalis ATCC 29212
[5] = test system: Escherichia coli ATCC 25922; assay: AST QC assay on AD-1 instrument, QC isolate E. coli ATCC 25922; format: cell-based; conditions: unit assumed
Source text: as §1, §2, §3, §4, §5

[6] = test system: Escherichia coli ATCC 25922; conditions: in µg/mL (unit assumed), cited from earlier work; for Organism QC Range (MIC): AST QC panel (Table 9), CLSI recommended isolate E. coli ATCC 25922; for Expected (MIC acceptance range): E. coli ATCC 25922
[7] = AST only report (Table 10), in µg/mL (unit assumed)
[8] = ID and AST report (Table 11), in µg/mL (unit assumed)

| Compound | Organism QC Range (MIC) ([1]; in µg/mL (unit assumed)) | Expected (MIC acceptance range) [1, 7] | Expected (MIC acceptance range) [1, 8] | Result (MIC value) ([2]; AST only report (Table 10)) [µg/mL] | Result (MIC value) ([2]; ID and AST report (Table 11)) [µg/mL] | Result (MIC value) ([3]; AST only report (Table 10)) [µg/mL] | further results |
| --- | --- | --- | --- | --- | --- | --- | --- |
| NCC[C@H](O)C(=O)N[C@@H]1C[C@H](N)[C@@H](O[C@H]2O[C@H](CN)[C@@H](O)[C@H](O)[C@H]2O)[C@H](O)[C@H]1O[C@H]1O[C@H](CO)[C@@H](O)[C@H](N)[C@H]1O [Amikacin] | 1-4 | 1-4 | 1-4 | 2 | 2 |  |  |
| CC1(C)S[C@@H]2[C@H](NC(=O)[C@H](N)c3ccccc3)C(=O)N2[C@H]1C(=O)O [Ampicillin] |  |  |  |  |  | 1 | Organism QC Range (MIC) ([4]; in µg/mL (unit assumed)): 0.5-2; Expected (MIC acceptance range) ([4]; AST only report (Table 10)): 0.5-2^ |
| C[C@H]1[C@H](NC(=O)/C(=N\OC(C)(C)C(=O)O)c2csc(N)n2)C(=O)N1S(=O)(=O)O [Aztreonam] | 2-8 | 2-8 | 2-8 | 4 | 4 |  |  |
| Cc1nnc(SCC2=C(C(=O)O)N3C(=O)[C@@H](NC(=O)Cn4cnnn4)[C@H]3SC2)s1 [Cefazolin] |  |  |  |  |  |  | Result (MIC value) ([5]; AST only report (Table 10)): 2 µg/mL; Organism QC Range (MIC) [6]: 1-4; Expected (MIC acceptance range) ([6]; AST only report (Table 10)): 1-4 |
| CO/N=C(\C(=O)N[C@@H]1C(=O)N2C(C(=O)[O-])=C(C[N+]3(C)CCCC3)CS[C@H]12)c1csc(N)n1 [Cefepime] | 0.5-4 |  |  | 2 | 2 |  | Expected (MIC acceptance range) ([1]; AST only report (Table 10)): 0.5-4^; Expected (MIC acceptance range) ([1]; ID and AST report (Table 11)): 0.5-4^ |
| CCO/N=C(\C(=O)N[C@@H]1C(=O)N2C(C(=O)[O-])=C(Sc3nc(-c4cc[n+](C)cc4)cs3)CS[C@H]12)c1nsc(N)n1 [Ceftaroline] |  |  |  |  |  | 1 | Result (MIC value) ([3]; ID and AST report (Table 11)): 1 µg/mL |
| CC(C)(O/N=C(\C(=O)N[C@@H]1C(=O)N2C(C(=O)[O-])=C(C[n+]3ccccc3)CS[C@H]12)c1csc(N)n1)C(=O)O [Ceftazidime] |  |  |  |  |  |  | Result (MIC value) ([5]; AST only report (Table 10)): 0.25 µg/mL; Result (MIC value) ([5]; ID and AST report (Table 11)): 0.25 µg/mL; Organism QC Range (MIC) [6]: 1-4; Expected (MIC acceptance range) ([6]; AST only report (Table 10)): 0.06-0.5; Expected (MIC acceptance range) ([6]; ID and AST report (Table 11)): 0.06-0.5 |
| CO/N=C(\C(=O)N[C@@H]1C(=O)N2C(C(=O)O)=C(CSc3nc(=O)c(=O)[nH]n3C)CS[C@H]12)c1csc(N)n1 [Ceftriaxone] |  |  |  |  |  |  | Result (MIC value) ([5]; AST only report (Table 10)): 0.0525 µg/mL; Result (MIC value) ([5]; ID and AST report (Table 11)): 0.0525 µg/mL; Organism QC Range (MIC) [6]: 0.03-0.12; Expected (MIC acceptance range) ([6]; AST only report (Table 10)): 0.03-0.125; Expected (MIC acceptance range) ([6]; ID and AST report (Table 11)): 0.03-0.125 |
| O=C(O)c1cn(C2CC2)c2cc(N3CCNCC3)c(F)cc2c1=O [Ciprofloxacin] |  | 0.25-1 | 0.25-1 | 0.5 | 0.5 |  |  |
| CCCCCCCCCC(=O)N[C@@H](Cc1c[nH]c2ccccc12)C(=O)N[C@H](CC(N)=O)C(=O)N[C@@H](CC(=O)O)C(=O)N[C@@H]1C(=O)NCC(=O)N[C@@H](CCCN)C(=O)N[C@@H](CC(=O)O)C(=O)N[C@H](C)C(=O)N[C@@H](CC(=O)O)C(=O)NCC(=O)N[C@H](CO)C(=O)N[C@@H]([C@H](C)CC(=O)O)C(=O)N[C@@H](CC(=O)c2ccccc2N)C(=O)O[C@@H]1C [Daptomycin] |  |  |  |  |  | 2 | Result (MIC value) ([3]; ID and AST report (Table 11)): 2 µg/mL; Organism QC Range (MIC) ([4]; in µg/mL (unit assumed)): 1-4; Expected (MIC acceptance range) [4, 7]: 1-4; Expected (MIC acceptance range) [4, 8]: 1-4 |
| C[C@H]1c2cccc(O)c2C(=O)C2=C(O)[C@]3(O)C(=O)C(C(N)=O)=C(O)[C@@H](N(C)C)[C@@H]3[C@@H](O)[C@@H]21 [Doxycycline] |  |  |  |  |  | 4 | Result (MIC value) ([3]; ID and AST report (Table 11)): 4 µg/mL |
| C[C@@H](O)[C@H]1C(=O)N2C(C(=O)O)=C(S[C@@H]3CN[C@H](C(=O)Nc4cccc(C(=O)O)c4)C3)[C@H](C)[C@H]12 [Ertapenem] | 2-8 | 2-8 | 2-8 | 4 | 4 |  |  |
| CC(=O)NC[C@H]1CN(c2ccc(N3CCOCC3)c(F)c2)C(=O)O1 [Linezolid] |  |  |  |  |  | 2 | Result (MIC value) ([3]; ID and AST report (Table 11)): 2 µg/mL; Organism QC Range (MIC) ([4]; in µg/mL (unit assumed)): 1-4; Expected (MIC acceptance range) [4, 7]: 1-4; Expected (MIC acceptance range) [4, 8]: 1-4 |
| C[C@@H](O)[C@H]1C(=O)N2C(C(=O)O)=C(S[C@@H]3CN[C@H](C(=O)N(C)C)C3)[C@H](C)[C@H]12 [Meropenem] | 0.25-1 | 0.25-1 | 0.25-1 | 0.5 | 0.5 |  |  |
| CN(C)c1ccc(O)c2c1C[C@H]1C[C@H]3[C@H](N(C)C)C(O)=C(C(N)=O)C(=O)[C@@]3(O)C(O)=C1C2=O [Minocycline] |  |  |  |  |  |  | Result (MIC value) ([5]; AST only report (Table 10)): 0.5 µg/mL; Result (MIC value) ([5]; ID and AST report (Table 11)): 0.5 µg/mL |
| NC[C@H]1O[C@H](O[C@H]2[C@H](O)[C@@H](O[C@H]3O[C@H](CO)[C@@H](O)[C@H](N)[C@H]3O)[C@H](N)C[C@@H]2N)[C@H](N)C[C@@H]1O [Tobramycin] | 0.25-1 | 0.25-1 | 0.25-1 | 0.5 | 0.5 |  |  |
| CN[C@H](CC(C)C)C(=O)N[C@H]1C(=O)N[C@@H](CC(N)=O)C(=O)N[C@H]2C(=O)N[C@H]3C(=O)N[C@H](C(=O)N[C@H](C(=O)O)c4cc(O)cc(O)c4-c4cc3ccc4O)[C@H](O)c3ccc(c(Cl)c3)Oc3cc2cc(c3O[C@@H]2O[C@H](CO)[C@@H](O)[C@H](O)[C@H]2O[C@H]2C[C@](C)(N)[C@H](O)[C@H](C)O2)Oc2ccc(cc2Cl)[C@H]1O [Vancomycin] |  |  |  |  |  | 2 | Result (MIC value) ([3]; ID and AST report (Table 11)): 2 µg/mL; Organism QC Range (MIC) ([4]; in µg/mL (unit assumed)): 0.5-2; Expected (MIC acceptance range) [4, 7]: 1-4; Expected (MIC acceptance range) [4, 8]: 1-4 |
| Colistin | 0.5-4 |  |  | 2 | 2 |  | Expected (MIC acceptance range) ([1]; AST only report (Table 10)): 0.5-4^; Expected (MIC acceptance range) ([1]; ID and AST report (Table 11)): 0.5-4^ |
| Gentamicin | 0.5-2 |  |  | 1 | 1 |  | Expected (MIC acceptance range) ([1]; AST only report (Table 10)): 0.5-2^; Expected (MIC acceptance range) ([1]; ID and AST report (Table 11)): 0.5-2^ |
